According to patent US20220313651A1, “INHIBITORS OF ZIKA VIRUS INFECTION” (priority 2019, published 2022):
Where two headings read alike, the source gives them in different places.

What was measured:
[1] = system: ZIKV human strain IbH 30656 (1968/Nigeria); assay: Plaque reduction inhibition assay in Vero E6 cells, ZIKV IbH 30656; assay type: cell-based, Zika virus (ZIKV)
Procedure: (§1) A plaque reduction inhibition assay was carried out to measure the inhibitory activity of Z-medicaments against infections of ZIKV and DENV. […] The compound-virus mixtures were then transferred to Vero E6 cells (10^5/well) and incubated at 37° C. for 1 h.

[2] = biological target: T1, ZIKV EDIII protein (Zika virus, UniProt Q32ZE1, D679E/I627V/V603I/V629A); assay: SPR binding to ZIKV EDIII protein; conditions: 1:1 binding model, read-out: KD (binding affinity) to ZIKV EDIII protein
T1 construct: human Fc (C)
Procedure: Briefly, ZIKV EDIII protein or NS2B-NS3 protein were immobilized on a sensor chip (CM5) using Amine Coupling Kit. Serially diluted ST087010 was added as analytes, and HBS-EP with 10% DMSO (10 mM HEPES, 150 mM NaCl, 3 mM EDTA, 0.05% Tween-20, 10% DMSO, pH 7.4) was used as running buffer. Biacore BK evaluation software (version 1.1) was applied to analyze the data, and the curve was fitted with a 1:1 binding model.

[3] = biological target: T2, binding between ZIKV EDIII and EDI/II-specific mAb ZKA78 (Zika virus, UniProt Q32ZE1, D679E/I627V/V603I/V629A); assay: ELISA competition, control EDI/II-specific mAb ZKA78; conditions: ZKA78 does not bind EDIII
T2 construct: human Fc (C)
Procedure: ELISA was also used to determine the ability of ST087010 in inhibition of the binding between ZIKV EDIII and EDIII-specific human mAbs (SMZAb5, ZKA64-LALA, ZV-67, or Z004) or EDI/II-specific human mAb (ZKA78) control. […] The plates were then sequentially incubated with HRP-conjugated anti-human IgG-Fab antibody and TMB substrate, followed by detection of A450 values. Percent inhibition (% inhibition) of compounds was calculated based on the ELISA results, and IC50 was obtained […].

[4] = biological target: T3, ZIKV NS2B-NS3 protease (Zika virus, UniProt Q32ZE1); assay: Fluorescence-based inhibition of NS2B-NS3 protease activity; assay type: biochemical; conditions: substrate Bz-Nle-Lys-Lys-Arg-AMC 4 μM, protein 1 μg/ml
T3 construct: 49-97) and NS2 protein (residues 1-185) through a covalent; made in house; host or cells: E. coli
Procedure: Binding of compounds (NPs) to ZIKV full-length E (FIG. 3A), EDIII (FIG. 3B), and NS2B-NS3 (FIG. 3C) proteins, was detected by ELISA. The percent binding was reported in the presence or absence of serially diluted NPs using the formula (1-[E/EDIII-NP]/[E/EDIII])×100 (for E/EDIII binding) or (1-[NS2B-NS3-NP]/[NS2B-NS3])×100 (for NSEB-NS3 binding). […] The concentrations of ZIKV EDIII and mAbs were 1.5 and 0.5 μg/ml, respectively. […] The concentrations of substrate (Bz-Nle-Lys-Lys-Arg-AMC) and ZIKV NS2B-NS3 protein were 4 μM and 1 μg/ml, respectively. The percent inhibition of protease activity was calculated in the presence or absence of serially diluted compounds using the formula (1-[NS2B-NS3-substrate-NP]/[NS2B-NS3-substrate])×100. The IC50 values were calculated based on the percent inhibition. The data are expressed as mean±s.e.m. (n=4).

[5] = system: nine additional ZIKV strains; assay: Plaque reduction inhibition assay, nine additional ZIKV strains taken together; assay type: cell-based; conditions: Zika virus, Vero C1008; range over nine additional strains, Vero E6 cells; read-out: IC50 values against all nine ZIKV strains tested
Procedure: as §1
The identified Z-medicaments were further studied for their broad-spectrum activity against nine additional ZIKV strains, including those isolated from different hosts, namely humans, mosquitos, and rhesus macaques, at different time periods (1947-2016) in different countries, including Mexico, Panama, Columbia, Honduras, Puerto Rico, Thailand, Nigeria, and Uganda.

[6] = in vitro; conditions: African green monkey
Procedure: The cytotoxicity of the Z-medicaments in Vero E6 (ZIKV target cells) was evaluated using the Cell Counting Kit-8 (CCK8).
Briefly, compounds at 2-fold serial dilutions were added to cells (2.0×10^4/well) pre-seeded in 96-well plates. The cells were cultured at 37° C. for 3 days, and incubated with CCK8 solution, followed by measurement of absorbance at 450 nm (A450 value) using microplate reader.

## Cc1cc2c(C(C)C)c(O)c(O)c(/C=N/n3c(=O)[nH][nH]c3=O)c2c(O)c1-c1c(C)cc2c(C(C)C)c(O)c(O)c(/C=N/n3c(=O)[nH][nH]c3=O)c2c1O [ST087010]
[1]; Table 7, gossypol derivatives, read-out: ZIKV strains IC50, IbH 30656
  IC50: 2.94 ± 0.08 µM
[2]
  Kd: 4.95 µM
[3]
  Effect on binding of EDI/II-specific mAb ZKA78 (control): no observable effect
[4]; read-out: IC50, inhibition of ZIKV NS2B-NS3 protease cleavage
  IC50: 4.84 µM

## Cc1cc2c(C(C)C)c(O)c(O)c(C=O)c2c(O)c1-c1c(C)cc2c(C(C)C)c(O)c(O)c(C=O)c2c1O [Gossypol, gossypol]
[5]
  IC50: 0.21 to 4.31 µM
[6]
  CC50 at 3 days: 14.49 ± 0.07 µM

## C[C@@H]1CC[C@@]2(OC1)O[C@H]1[C@@H](O)[C@H]3[C@@H]4CC[C@H]5C[C@@H](O[C@@H]6O[C@H](CO)[C@H](O[C@@H]7O[C@H](CO)[C@@H](O)[C@H](O[C@@H]8OC[C@@H](O)[C@H](O)[C@H]8O)[C@H]7O[C@@H]7O[C@H](CO)[C@H](O)[C@H](O[C@@H]8O[C@H](CO)[C@@H](O)[C@H](O)[C@H]8O)[C@H]7O)[C@H](O)[C@H]6O)[C@H](O)C[C@]5(C)[C@H]4CC[C@]3(C)[C@H]1[C@@H]2C [Digitonin, digitonin]
[1]; Zika virus, Vero C1008, Table 1, read-out: IC50 against ZIKV strain IbH 30656
  IC50: 5.3 ± 0.13 µM

## COc1cc(/C=C/C(=O)CC(=O)/C=C/c2ccc(O)c(OC)c2)ccc1O [Curcumin, curcumin]
[4]
  Inhibition of NS2B-NS3 protease activity (in words): low inhibitory activity
